This passage reports IC50 and melting point results from patent US7868037B2 (PTC Therapeutics, Inc., priority 2004, dated 2011).

One series concerns HCV replicon. Description: microbe, parasite or virus in culture. In kind it is cell-based, hepatitis C virus. The settings on record: Hepatitis C virus, read-out: Replicon IC50 μM.

Compound `CCn1cc(-c2ccccc2)c2cc([N+](=O)[O-])ccc21` [Compound 41, N-ethyl-3-phenyl-5-nitroindole] showed a melting point of 155 to 175 °C. Further, the 50% inhibitory concentration (IC50) in the series with HCV replicon was above 2 µM.

Turning to `CCOC(=O)c1c(C)n(-c2ccc(OC)cc2)c2ccc(OC(F)F)cc12` [Compound 49, ethyl 5-difluoromethoxy-1-(4-methoxyphenyl)-2-methyl-1H-indole-3-carboxylate], the melting point is 89 to 90 °C. Further, the half-inhibitory concentration (IC50) in the series on HCV replicon was above 2 µM.

As to `CCc1nnc(-c2cn(CC)c3cc(OC)ccc23)o1` [Compound 54, 1-ethyl-6-methoxy-3-(5-ethyl-[1,3,4]oxadiazol-2-yl)-1H-indole], the melting point was 99 to 101 °C. Further, the IC50 with HCV replicon was above 2 µM.

Regarding `CCn1c(-c2ccc(N)cc2)c(C#N)c2ccc(OC)cc21` [Compound 55, 2-(4-aminophenyl)-1-ethyl-6-methoxy-1H-indole-3-carbonitrile], the melting point was 183 to 185 °C. The IC50 in the series on HCV replicon was above 2 µM.

`CCn1cc(-c2ccno2)c2ccc(OC)cc21` [Compound 58, 1-ethyl-3-isoxazol-5-yl-6-methoxy-1H-indole] displayed a melting point of 76 to 79 °C. In addition, in the series on HCV replicon, the IC50 was above 2 µM.

`CCn1cc(-c2ccn[nH]2)c2ccc(OC)cc21` [Compound 59, 1-ethyl-6-methoxy-3-(2H-pyrazol-3-yl)-1H-indole]: the melting point lay in the range of 81 to 85 °C. Besides, the IC50 with HCV replicon was above 2 µM.

`CCn1c(C#Cc2ccc(F)cc2)c(C#N)c2ccc(OC)cc21` [Compound 67, 1-ethyl-2-(4-fluorophenylethynyl)-6-methoxy-1H-indole-3-carbonitrile]: the melting point was in the range of 132 to 136 °C. The concentration for half-maximal inhibition (IC50) in the series with HCV replicon was in the range of 0.5 to 2 µM.

In turn, `CCn1cc(-c2cnco2)c2ccc(C(=O)OC)cc21` [Compound 72, methyl 1-ethyl-3-oxazol-5-yl-1H-indole-6-carboxylate] registered a melting point of 144 to 149 °C. In addition, the IC50 in the series on HCV replicon is above 2 µM.

Consider `CCn1cc(-c2ncco2)c2ccc(C(=O)OC)cc21` [Compound 75, methyl 1-ethyl-3-oxazol-2-yl-1H-indole-6-carboxylate], for which the melting point was 118 to 123 °C. Moreover, in the series on HCV replicon, the IC50 was above 2 µM.

On to `CCn1c(-c2ccc(N3CCCS3(=O)=O)cc2)c(C#N)c2ccc(OC)cc21` [Compound 84, 2-[4-(1,1-dioxo-1λ^6-isothiazolidin-2-yl)phenyl]-1-ethyl-6-methoxy-1H-indole-3-carbonitrile], for which the melting point lay within 232 to 237 °C. In addition, in the series with HCV replicon, the IC50 is below 0.5 µM.

On to `CCCOC(=O)Nc1ccc2c(C#N)cn(-c3ccc(OC)cc3)c2c1` [Compound 97, [3-Cyano-1-(4-methoxyphenyl)-1H-indol-6-yl]-carbamic acid propyl ester], for which the melting point was in the range of 164 to 167 °C. The IC50 in the series with HCV replicon is above 2 µM.

In turn, `CCn1c(COc2ccccc2)c(C#N)c2ccc(OC)cc21` [Compound 99, 1-ethyl-6-methoxy-2-phenoxymethyl-1H-indole-3-carbonitrile] gave a melting point of 123.4 to 123.8 °C. The half-maximal inhibitory concentration (IC50) with HCV replicon is above 2 µM.

Regarding `CCn1cc(-c2cc(-c3ccc(OC)cc3)on2)c2ccc(OC)cc21` [Compound 116, 1-ethyl-6-methoxy-3-[5-(4-methoxyphenyl)-isoxazol-3-yl]-1H-indole], the melting point lay within 116 to 118 °C. The IC50 with HCV replicon was above 2 µM.

`CCOC(=O)Nc1ccc(-c2c(C#N)c3ccc(OC)cc3n2CC)cc1` [Compound 121, [4-(3-cyano-1-ethyl-6-methoxy-1H-indol-2-yl)-phenyl]-carbamic acid ethyl ester] gave a melting point of 167 to 169 °C. In addition, the IC50 in the series on HCV replicon fell in the range of 0.5 to 2 µM.

For the compound `CCn1c(-c2ccc(NC(C)=O)cc2)c(C#N)c2ccc(OC)cc21` [Compound 128, N-[4-(3-Cyano-1-ethyl-6-methoxy-1H-indol-2-yl)-phenyl]-acetamide], the melting point is 218 to 220 °C. Also, the half-maximal inhibitory concentration (IC50) in the series on HCV replicon is above 2 µM.

The compound `CCn1c(-c2ccc(NS(C)(=O)=O)cc2)c(C#N)c2ccc(OC)cc21` [Compound 129, N-[4-(3-Cyano-1-ethyl-6-methoxy-1H-indol-2-yl)-phenyl]-methanesulfonamide] had a melting point of 188 to 190 °C. Moreover, the 50% inhibitory concentration (IC50) in the series on HCV replicon was 0.5 to 2 µM.

Consider `CCn1c(C#Cc2ccc(NS(C)(=O)=O)cc2)c(C#N)c2ccc(OC)cc21` [Compound 130, N-[4-(3-cyano-1-ethyl-6-methoxy-1H-indol-2-ylethynyl)-phenyl]-methanesulfonamide], for which the melting point fell in the range of 227 to 233 °C. The IC50 with HCV replicon was below 0.5 µM.

`CCn1c(C#Cc2ccc(NC(C)=O)cc2)c(C#N)c2ccc(OC)cc21` [Compound 138, N-[4-(3-cyano-1-ethyl-6-methoxy-1H-indol-2-ylethynyl)-phenyl]-acetamide] yielded a melting point of 235 to 239 °C. Further, the IC50 in the series with HCV replicon lay within 0.5 to 2 µM.

Take `CCn1cc(C#N)c2cc(-c3ccsc3)ccc21` [Compound 141, 1-ethyl-5-thiophen-3-yl-1H-indole-3-carbonitrile]: the melting point was 145 to 146 °C. Also, in the series on HCV replicon, the IC50 is above 2 µM.

In turn, `CCn1c(C#Cc2ccc(NC(=O)NCCCl)cc2)c(C#N)c2ccc(OC)cc21` [Compound 156, 1-(2-chloroethyl)-3-[4-(3-cyano-1-ethyl-6-methoxy-1H-indol-2-ylethynyl)-phenyl]urea] showed a melting point of 205 to 209 °C. Besides, the IC50 in the series on HCV replicon fell in the range of 0.5 to 2 µM.

`CCn1c(C#Cc2ccc(N(C)S(=O)(=O)CC)cc2)c(C#N)c2ccc(OC)cc21` [Compound 157] showed a melting point of 149 to 153 °C. Also, the IC50 with HCV replicon was in the range of 0.5 to 2 µM.

Regarding `CCn1c(C#Cc2ccc(N3CCNC3=O)cc2)c(C#N)c2ccc(OC)cc21` [Compound 166, 1-ethyl-6-methoxy-2-[4-(2-oxo-imidazolidin-1-yl)-phenylethynyl]-1H-indole-3-carbonitrile], the melting point was in the range of 236 to 240 °C. Moreover, the half-maximal inhibitory concentration (IC50) in the series on HCV replicon was below 0.5 µM.

For `CCn1c(-c2ccc(N(C)S(C)(=O)=O)cc2)c(C#N)c2ccc(OC)cc21` [Compound 180, N-[4-(3-cyano-1-ethyl-6-methoxy-1H-indol-2-yl)-phenyl]-N-methyl methanesulfonamide], the melting point was in the range of 170 to 171 °C. Also, the IC50 in the series with HCV replicon was 0.5 to 2 µM.

`CCn1c(-c2ccc(NS(C)(=O)=O)cc2)c(C#N)c2ccc(O)cc21` [Compound 189, N-[4-(3-cyano-1-ethyl-6-hydroxy-1H-indol-2-yl)-phenyl]-methanesulfonamide] had a melting point of 252 to 253 °C. The half-maximal inhibitory concentration (IC50) with HCV replicon was above 2 µM.

The compound `CCn1c(C#Cc2ccc(NC(=O)C3CC3)cc2)c(C#N)c2ccc(O)cc21` [Compound 194, cyclopropanecarboxylic acid [4-(3-cyano-1-ethyl-6-hydroxy-1H-indol-2-ylethynyl)-phenyl]amide] registered a melting point of 278 to 284 °C. Moreover, the 50% inhibitory concentration (IC50) with HCV replicon lay in the range of 0.5 to 2 µM.

Compound `CCNC(=O)Nc1cccc(C#Cc2c(C#N)c3ccc(OC)cc3n2CC)c1` [Compound 220, 1-[3-(3-cyano-1-ethyl-6-methoxy-1H-indol-2-ylethynyl)phenyl]-3-ethyl urea] registered a melting point of 219 to 223 °C. Moreover, the IC50 in the series on HCV replicon lay within 0.5 to 2 µM.

Compound `COC(=O)c1cccc(-c2noc(-c3[nH]c4cc(OC)ccc4c3C#N)n2)c1` [Compound 226, methyl 3-[5-(3-cyano-6-methoxy-1H-indol-2-yl)-[1,2,4]oxadiazol-3-yl]benzoate] came in with a melting point of 294 to 295 °C. Moreover, the IC50 in the series on HCV replicon was above 2 µM.

Compound `CCn1c(C#Cc2ccc(NC=O)cc2)c(C#N)c2ccc(OC)cc21` [Compound 241, N-[4-(3-cyano-1-ethyl-6-methoxy-1H-indol-2-ylethynyl)-phenyl]-formamide] gave a melting point of 184 to 188 °C. Further, in the series with HCV replicon, the IC50 is above 2 µM.

`CCn1c(-c2ccc(C(=O)N3CCOCC3)cc2)c(C#N)c2cc(OC)ccc21` [Compound 245, 1-ethyl-5-methoxy-2-[4-(morpholine-4-carbonyl)-phenyl]-1H-indole-3-carbonitrile] registered a melting point of 192 to 195 °C. In addition, in the series on HCV replicon, the IC50 was above 2 µM.

For the compound `CCn1c(-c2ccc(OCCOC)cc2)c(C#N)c2ccc(OC)cc21` [Compound 248, 1-ethyl-6-methoxy-2-[4-(2-methoxyethoxy)-phenyl]-1H-indole-3-carbonitrile], the melting point lay in the range of 117 to 121 °C. Also, the half-inhibitory concentration (IC50) with HCV replicon lay within 0.5 to 2 µM.

Regarding `CCn1c(-c2ccc(OCCBr)cc2)c(C#N)c2ccc(OC)cc21` [Compound 253, 2-[4-(2-bromoethoxy)-phenyl]-1-ethyl-6-methoxy-1H-indole-3-carbonitrile], the melting point was 121 to 125 °C. Moreover, the IC50 in the series with HCV replicon was 0.5 to 2 µM.

`CCn1c(-c2ccc(OCCN3CCOCC3)cc2)c(C#N)c2ccc(OC)cc21` [Compound 261, 1-ethyl-6-methoxy-2-[4-(2-morpholin-4-yl-ethoxy)-phenyl]-1H-indole-3-carbonitrile]: the melting point was 138 to 143 °C. Besides, the IC50 with HCV replicon lay within 0.5 to 2 µM.

As for `CCn1c(-c2ccc(S(C)(=O)=O)cc2)c(C#N)c2ccc(OC)cc21` [Compound 265, 1-ethyl-2-(4-methanesulfonylphenyl)-6-methoxy-1H-indole-3-carbonitrile], the melting point was in the range of 204 to 206 °C. Moreover, in the series on HCV replicon, the IC50 was above 2 µM.

`CCn1c(-c2ccc(OCCN=[N+]=[N-])cc2)c(C#N)c2ccc(OC)cc21` [Compound 266, 2-[4-(2-azidoethoxy)phenyl]-1-ethyl-6-methoxy-1H-indole-3-carbonitrile] came in with a melting point of 96 to 99 °C. Besides, the 50% inhibitory concentration (IC50) in the series with HCV replicon fell in the range of 0.5 to 2 µM.

For the compound `CCn1c(-c2ccc(OCCN)cc2)c(C#N)c2ccc(OC)cc21` [Compound 267, 2-[4-(2-aminoethoxy)phenyl]-1-ethyl-6-methoxy-1H-indole-3-carbonitrile], the melting point lay within 106 to 112 °C. Moreover, in the series with HCV replicon, the IC50 was above 2 µM.

`CCn1c(-c2ccc(OCCNS(C)(=O)=O)cc2)c(C#N)c2ccc(OC)cc21` [Compound 268, N-{2-[4-(3-cyano-1-ethyl-6-methoxy-1H-indol-2-yl)-phenoxy]-ethyl}methanesulfonamide] returned a melting point of 137 to 143 °C. In the series with HCV replicon, the IC50 lay in the range of 0.5 to 2 µM.
